In brackets after ≈: the same amount, converted by molar mass.
Legend:
Assay type in all cases: functional
[1] = system: Helicobacter pylori; test: Antibacterial activity against Helicobacter pylori NCTC-11637 after 24 hrs; conditions: NCTC-11637, 24 h
[2] = system: Helicobacter pylori; test: Antibacterial activity against Helicobacter pylori NCTC-11637 after 5 days by serial dilution method
[3] = system: Helicobacter pylori; test: Antibacterial activity against Helicobacter pylori NCTC-11637 assessed as zone of inhibition at 0.5 ug/disk; conditions: read-out: IZ
[4] = system: Helicobacter pylori; test: Antibacterial activity against Helicobacter pylori NCTC-11637 assessed as zone of inhibition at 500 ug/disk; conditions: read-out: IZ
[5] = system: Helicobacter pylori; test: Antibacterial activity against Helicobacter pylori assessed NCTC-11637 as zone of inhibition at 2 ug/disk; conditions: read-out: IZ
[6] = system: Helicobacter pylori; test: Antibacterial activity against Helicobacter pylori NCTC-11637 assessed as zone of inhibition at 10 ug/disk; conditions: read-out: IZ
[7] = system: Helicobacter pylori; test: Antibacterial activity against Helicobacter pylori assessed NCTC-11637 as zone of inhibition at 0.02 ug/disk; conditions: read-out: IZ
[8] = system: Helicobacter pylori; test: Antibacterial activity against Helicobacter pylori assessed NCTC-11637 as zone of inhibition at 0.01 ug/disk; conditions: read-out: IZ
[9] = Helicobacter pylori, 120 h, read-out: MBC

Row | MIC [1] [µg/mL] | SMILES | MBC [2, 9] [µg/mL] | further results
1 | 1.25 (≈ 2.7 µM) | COc1cc(OC)c2c(c1)C(CCCCCCCCCC(CCC(C)=O)OC(C)=O)OC2=O (stereo not drawn) | 2.5 (≈ 5.4 µM) | zone of inhibition at 0.5 µg/disc [3]: 15 mm
2 | 0.5 (≈ 1.19 µM) | COc1cc(OC)c2c(c1)[C@@H](CCCCC[C@H]1CCC[C@]3(CC[C@@H](C)O3)O1)OC2=O | 1 (≈ 2.39 µM) | 
3 | > 100 | COc1cc(OC)c2ccn(CCCCCCCCCC(CCC(C)=O)OC(C)=O)c2c1 (stereo not drawn) | > 100 | 
4 | > 100 | COc1cc(OC)c2ccn(CCCCCCCCCCCCC(C)O)c2c1 (stereo not drawn) | > 100 | 
5 | 50 (≈ 129 µM) | COc1cc(OC)c2ccn(CCCCCCCCCCCCC(C)=O)c2c1 | 50 (≈ 129 µM) | 
6 | 10 (≈ 24.9 µM) | COc1cc(OC)c2ccn(CCCCCCCCCC(=O)CCC(C)=O)c2c1 | 20 (≈ 49.8 µM) | 
7 | 20 (≈ 53.5 µM) | COc1cc(OC)c2ccn(CCCC3CCCC4(CCCCO4)O3)c2c1 (stereo not drawn) | 40 (≈ 107 µM) | 
8 | 12.5 (≈ 30.7 µM) | COc1cc(OC)c2c(c1)C(CCCCCCCCCCCCC(C)O)OC2=O (stereo not drawn) | 50 (≈ 123 µM) | zone of inhibition at 500 µg/disc [4]: 15 mm
9 | 20 (≈ 47.8 µM) | COc1cc(OC)c2c(c1)[C@H](CCCCCC[C@H]1CC[C@]3(CC[C@H](C)O3)O1)OC2=O | 100 (≈ 239 µM) | 
10 | 0.3 (≈ 0.717 µM) | COc1cc(OC)c2c(c1)[C@@H](CCCCCC[C@H]1CC[C@@]3(CC[C@H](C)O3)O1)OC2=O | 0.3 (≈ 0.717 µM) | 
11 | 20 (≈ 47.8 µM) | COc1cc(OC)c2c(c1)[C@H](CCCCCC[C@H]1CC[C@@]3(CC[C@H](C)O3)O1)OC2=O | 100 (≈ 239 µM) | 
12 | 0.3 (≈ 0.717 µM) | COc1cc(OC)c2c(c1)[C@@H](CCCCCC[C@H]1CC[C@]3(CC[C@H](C)O3)O1)OC2=O | 0.3 (≈ 0.717 µM) | 
13 | 2.5 (≈ 5.97 µM) | COc1cc(OC)c2c(c1)C(CCCCCCCCCC(=O)CCC(C)=O)OC2=O (stereo not drawn) | 5 (≈ 11.9 µM) | zone of inhibition at 2 µg/disc [5]: 15 mm
14 | 10 (≈ 24.7 µM) | COc1cc(OC)c2c(c1)C(CCCCCCCCCCCCC(C)=O)OC2=O (stereo not drawn) | 10 (≈ 24.7 µM) | zone of inhibition at 10 µg/disc [6]: 15 mm
15 | 5 (≈ 15.1 µM) | COc1cc(OC)c2ccn(CCCCCCCCC(C)=O)c2c1 | 10 (≈ 30.2 µM) | 
16 | 0.125 (≈ 0.299 µM) | COc1cc(OC)c2c(c1)[C@@H](CCCCC[C@H]1CCC[C@]3(CC[C@H](C)O3)O1)OC2=O | 0.125 (≈ 0.299 µM) | 
17 | 0.02 (≈ 0.0478 µM) | COc1cc(OC)c2c(c1)C(CCCCCCC1CCC3(CCC(C)O3)O1)OC2=O (stereo in doubt) |  | MBC [2]: 0.2 µg/mL (≈ 0.478 µM)
18 |  | COc1cc(OC)c2c(c1)C(CCCCCCC1CCC3(CCC(C)O3)O1)OC2=O (stereo in doubt; 5) |  | zone of inhibition at 0.02 µg/disc [7]: 15 mm; MBC [2]: 0.02 µg/mL (≈ 0.0478 µM)
19 | 0.2 (≈ 0.494 µM) | COc1cc(O)cc2c1C(=O)OC2CCCCCC1CCCC2(CCC(C)O2)O1 (stereo not drawn) [SPIROLAXINE] | > 2 | zone of inhibition at 0.01 µg/disc [8]: 15 mm

— ChEMBL document CHEMBL1150341, “Anti-Helicobacter pylori activity of derivatives of the phthalide-containing antibacterial agents spirolaxine methyl ether, CJ-12,954, CJ-13,013, CJ-13,102, CJ-13,104, CJ-13,108 and CJ-13,015” (2008)
